Patent publication US7504420B2, “Compounds which inhibit beta-secretase activity and methods of use” (CoMentis, Inc., priority 2005, dated 2009)
pIC50, pKi: −log10 of the molar value.

Columns and labels:
[1] = biological target: cathepsin D (Homo sapiens, UniProt P07339); assay: Inhibition of cathepsin D catalytic activity (Ki); format: biochemical; details: pH 4.0, 37° C., read-out: CDK
Protocol: A substrate peptide NH3-ELDLAVEFWHDR-CO2 (SEQ ID NO.:1) (used for inhibition assay of memapsin 2, memapsin 1, and cathepsin D) was dissolved at 2 mg/ml in DMSO and diluted 1:100 in 0.1 M sodium acetate, pH 4.0 just prior to assay. Inhibitor dissolved in DMSO was diluted into 0.1 M sodium acetate, pH 4.0 (1:100 dilution). A […] aliquot of the inhibitor solution in pH 4 buffer was combined with […] of 0.1 M sodium acetate containing 100-200 nM of memapsin 1, memapsin 2, or cathepsin D. Following a pre-incubation at 37° C., the proteolytic assay was initated by addition of […] of the substrate diluted into pH 4 buffer, and incubation continued at 37° C. Aliquots were removed at time intervals, and combined with an equal volume of MALDI-TOF matrix (α-hydroxycinnamic acid in acetone, 20 mg/ml) and immediately spotted in duplicate onto a stainless-steel MALDI sample plate. MALDI-TOF mass spectrometry was performed on a PE Biosystems Voyager DE instrument at the Molecular Biology Resource Center on campus. The instrument was operated at 25,000 accelerating volts in positive mode with a 150 ns delay. Ions with a mass-to-charge ratio (m/z) were detected in the range of 650-2000 atomic mass units. Data were analyzed by the Voyager Data Explorer module to obtain ion intensity data for mass species of substrates and corresponding products in a given mixture. Relative product formation was calculated as the ratio of signal intensity of the product to the sum of signal intensities of both product and the corresponding substrate. Relative product formed per unit time was obtained from non-linear regression analysis of the data representing the initial 15% formation of product using the model: 1−e^−kT, where k was the relative hydrolytic rate constant and T was time in seconds. Alternatively, relative hydrolytic rates were determined using a fluorogenic cleavage assay (Ermolieff, J. et al., Biochemistry, 39: 12450-12456 (2000)). Initial rates from either method were expressed relative to uninhibited controls and the inhibition constant Ki was determined by a non-linear fit to a tight-binding model of competitive inhibition (Bieth, J., Bayer-Symposium V: Proteinase Inhibitors, pp 463-469, Spinger-Varlag, Berlin (1994)). Results are shown in Table 1 above (M2K, CDK, and M1K columns represent, respectively, the K1 values obtained for memapsin 2, cathepsin D and memapsin 1).

[2] = biological target: memapsin 2 (Homo sapiens, UniProt P56817); assay: Inhibition of memapsin 2 catalytic activity (Ki); format: biochemical; details: memapsin 2, pH 4, 37° C.; read-out: M2K
Procedure, shortened: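 Run at 37 °C and pH 4: compound and enzyme pre-incubated 20 min before FS-2 fluorogenic substrate started hydrolysis,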

[3] = tested on: Aβ production in Chinese hamster ovary cells that over-express human APP695 with the London and Swedish mutations; assay: Cellular Aβ IC50 determination (Aβ40 sandwich ELISA); details: Cricetulus griseus, CHO, 24 h, read-out: Cell, Aβ40, CHO cells over-expressing human APP695 (London and Swedish mutations), 24 h

memapsin 2, sequence (P56817 46-501): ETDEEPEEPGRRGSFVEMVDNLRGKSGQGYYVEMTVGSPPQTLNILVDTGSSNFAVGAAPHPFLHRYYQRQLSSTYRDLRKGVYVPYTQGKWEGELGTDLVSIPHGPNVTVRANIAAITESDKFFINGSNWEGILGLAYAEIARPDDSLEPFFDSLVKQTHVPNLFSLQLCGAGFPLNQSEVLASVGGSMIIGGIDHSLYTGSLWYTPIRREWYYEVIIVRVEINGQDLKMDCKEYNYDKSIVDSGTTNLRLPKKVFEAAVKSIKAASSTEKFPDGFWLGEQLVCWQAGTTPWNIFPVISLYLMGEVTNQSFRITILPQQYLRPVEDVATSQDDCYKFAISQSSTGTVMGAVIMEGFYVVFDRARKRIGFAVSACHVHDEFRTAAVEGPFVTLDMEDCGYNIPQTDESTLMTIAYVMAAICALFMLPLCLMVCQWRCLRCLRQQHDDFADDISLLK
cathepsin D, sequence (P07339 65-412, species assumed): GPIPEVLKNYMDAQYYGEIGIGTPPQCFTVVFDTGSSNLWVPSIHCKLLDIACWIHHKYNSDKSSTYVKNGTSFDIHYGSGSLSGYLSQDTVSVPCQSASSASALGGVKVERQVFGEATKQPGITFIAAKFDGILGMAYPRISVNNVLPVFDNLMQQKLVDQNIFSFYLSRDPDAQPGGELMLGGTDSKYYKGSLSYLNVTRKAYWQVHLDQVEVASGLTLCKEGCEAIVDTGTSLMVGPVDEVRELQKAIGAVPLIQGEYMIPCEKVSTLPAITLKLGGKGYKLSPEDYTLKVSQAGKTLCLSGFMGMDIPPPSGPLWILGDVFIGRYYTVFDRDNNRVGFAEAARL

pKi [1]	pKi [2]	pIC50 [3]	SMILES
> 6.52	> 6.52	> 6.00	CC(NC(=O)c1cc(C(=O)NC(Cc2ccccc2)C(O)CNC(C)C2CCCCC2)cc(N(C)S(C)(=O)=O)c1)c1ccccc1 (stereo not drawn) [N1-(4-(1-cyclohexylethylamino)-3-hydroxy-1-phenylbutan-2-yl)-5-(N-methylmethylsulfonamido)-N3-(1-phenylethyl)isophthalamide]
< 6.30	< 6.30	< 5.30	CC(NC(=O)c1cc(C(=O)NC(Cc2ccccc2)C(O)CNCC2CCNCC2)cc(N(C)S(C)(=O)=O)c1)c1ccccc1 (stereo not drawn) [N1-(3-hydroxy-1-phenyl-4-(piperidin-4-ylmethylamino)butan-2-yl)-5-(N-methylmethylsulfonamido)-N3-(1-phenylethyl)isophthalamide]
< 6.30	< 6.30	< 5.30	Cc1csc(CN(C)C(=O)c2cccc(C(=O)NC(Cc3ccccc3)C(O)CNCCN3CCCC3)c2)n1 (stereo not drawn) [N1-(3-hydroxy-1-phenyl-4-(2-(pyrrolidin-1-yl)ethylamino)butan-2-yl)-N3-methyl-N3-((4-methylthiazol-2-yl)methyl)isophthalamide]
> 6.52	> 6.52	> 6.00	COc1cccc(CNCC(O)C(Cc2ccccc2)NC(=O)c2cc(C(=O)NC(C)C3CCCCC3)cc(N(C)S(C)(=O)=O)c2)c1 (stereo not drawn) [N1-(1-cyclohexylethyl)-N3-(3-hydroxy-4-(3-methoxybenzylamino)-1-phenylbutan-2-yl)-5-(N-methylmethylsulfonamido)isophthalamide]
> 6.52	> 6.52	5.30 to 6.00	CC(NC(=O)c1cc(C(=O)NC(Cc2ccccc2)C(O)CNCC2CCN(C(=O)OCc3ccccc3)CC2)cc(N(C)S(C)(=O)=O)c1)c1ccccc1 (stereo not drawn) [benzyl 4-((2-hydroxy-3-(3-(N-methylmethylsulfonamido)-5-(1-phenylethylcarbamoyl)benzamido)-4-phenylbutylamino)methyl)piperidine-1-carboxylate]
> 6.52	> 6.52	> 6.00	Cc1cc(CNCC(O)C(Cc2ccccc2)NC(=O)c2cc(C(=O)NC(C)c3ccccc3)cc(N(C)S(C)(=O)=O)c2)no1 (stereo not drawn) [N1-(3-hydroxy-4-((5-methylisoxazol-3-yl)methylamino)-1-phenylbutan-2-yl)-5-(N-methylmethylsulfonamido)-N3-(1-phenylethyl)isophthalamide]
6.30 to 6.52	6.30 to 6.52	5.30 to 6.00	Cc1csc(CN(C)C(=O)c2cccc(C(=O)NC(Cc3ccccc3)C(O)CNCc3cc(C)on3)c2)n1 (stereo not drawn) [N1-(3-hydroxy-4-((5-methylisoxazol-3-yl)methylamino)-1-phenylbutan-2-yl)-N3-methyl-N3-((4-methylthiazol-2-yl)methyl)isophthalamide]
< 6.30	< 6.30	< 5.30	CC(NC(=O)c1cc(C(=O)NC(Cc2ccccc2)C(O)CNCC2CCCNC2)cc(N(C)S(C)(=O)=O)c1)c1ccccc1 (stereo not drawn) [N1-(3-hydroxy-1-phenyl-4-(piperidin-3-ylmethylamino)butan-2-yl)-5-(N-methylmethylsulfonamido)-N3-(1-phenylethyl)isophthalamide]
> 6.52	> 6.52	> 6.00	CC(NC(=O)c1cc(C(=O)NC(Cc2ccccc2)C(O)CNCc2cncc(F)c2)cc(N(C)S(C)(=O)=O)c1)c1ccccc1 (stereo not drawn) [N1-(4-((5-fluoropyridin-3-yl)methylamino)-3-hydroxy-1-phenylbutan-2-yl)-5-(N-methylmethylsulfonamido)-N3-(1-phenylethyl)isophthalamide]
> 6.52	> 6.52	> 6.00	CC(NC(=O)c1cc(C(=O)NC(Cc2ccccc2)C(O)CNCc2cccc(CF)c2)cc(N(C)S(C)(=O)=O)c1)c1ccccc1 (stereo not drawn) [N1-(4-(3-(fluoromethyl)benzylamino)-3-hydroxy-1-phenylbutan-2-yl)-5-(N-methylmethylsulfonamido)-N3-(1-phenylethyl)isophthalamide]
> 6.52	> 6.52	> 6.00	CC(NC(=O)c1cc(C(=O)NC(Cc2ccccc2)C(O)CNCc2cccc(C(F)(F)F)c2)cc(N(C)S(C)(=O)=O)c1)c1ccccc1 (stereo not drawn) [N1-(3-hydroxy-1-phenyl-4-(3-(trifluoromethyl)benzylamino)butan-2-yl)-5-(N-methylmethylsulfonamido)-N3-(1-phenylethyl)isophthalamide]
> 6.52	> 6.52	> 6.00	Cc1csc(CN(C)C(=O)c2cccc(C(=O)NC(Cc3ccccc3)C(O)CNCc3cccc(OC(C)C)c3)c2)n1 (stereo not drawn) [N1-(3-hydroxy-4-(3-isopropoxybenzylamino)-1-phenylbutan-2-yl)-N3-methyl-N3-((4-methylthiazol-2-yl)methyl)isophthalamide]
> 6.52	> 6.52	> 6.00	CC(C)c1cncc(CNCC(O)C(Cc2ccccc2)NC(=O)c2cc(C(=O)NC(C)c3ccccc3)cc(N(C)S(C)(=O)=O)c2)c1 (stereo not drawn) [N1-(3-hydroxy-4-((5-isopropylpyridin-3-yl)methylamino)-1-phenylbutan-2-yl)-5-(N-methylmethylsulfonamido)-N3-(1-phenylethyl)isophthalamide]
6.30 to 6.52	> 6.52	> 6.00	CC(NC(=O)c1cc(C(=O)NC(Cc2ccccc2)C(O)CNCc2cncc(N(C)C)c2)cc(N(C)S(C)(=O)=O)c1)c1ccccc1 (stereo not drawn) [N1-(4-((5-(dimethylamino)pyridin-3-yl)methylamino)-3-hydroxy-1-phenylbutan-2-yl)-5-(N-methylmethylsulfonamido)-N3-(1-phenylethyl)isophthalamide]
> 6.52	> 6.52	> 6.00	CC(C)Oc1cncc(CNCC(O)C(Cc2ccccc2)NC(=O)c2cc(C(=O)NC(C)c3ccccc3)cc(N(C)S(C)(=O)=O)c2)c1 (stereo not drawn) [N1-(3-hydroxy-4-((5-isopropoxypyridin-3-yl)methylamino)-1-phenylbutan-2-yl)-5-(N-methylmethylsulfonamido)-N3-(1-phenylethyl)isophthalamide]
< 6.30	< 6.30	> 6.00	COc1cccc(CNCC(O)C(Cc2ccccc2)NC(=O)c2cc(C(=O)NCc3cncc(O)c3)cc(N(C)S(C)(=O)=O)c2)c1 (stereo not drawn) [N1-(3-hydroxy-4-(3-methoxybenzylamino)-1-phenylbutan-2-yl)-N3-((5-hydroxypyridin-3-yl)methyl)-5-(N-methylmethylsulfonamido)isophthalamide]
> 6.52	> 6.52	> 6.00	CCc1cncc(CNCC(O)C(Cc2ccccc2)NC(=O)c2cccc(C(=O)N(C)Cc3nc(C)cs3)c2)c1 (stereo not drawn) [N1-(4-((5-ethylpyridin-3-yl)methylamino)-3-hydroxy-1-phenylbutan-2-yl)-N3-methyl-N3-((4-methylthiazol-2-yl)methyl)isophthalamide]
> 6.52	< 6.30	5.30 to 6.00	COc1cccc(CNCC(O)C(Cc2ccccc2)NC(=O)c2cc(C(=O)NC(C)c3ccccc3)c(F)cc2F)c1 (stereo not drawn) [4,6-difluoro-N1-(3-hydroxy-4-(3-methoxybenzylamino)-1-phenylbutan-2-yl)-N3-(1-phenylethyl)isophthalamide]
> 6.52	> 6.52	> 6.00	CCc1cncc(CNCC(O)C(Cc2ccccc2)NC(=O)c2cc(C(=O)NC(C)c3ccccc3)cc(N(C)S(C)(=O)=O)c2)c1 (stereo not drawn) [N1-(4-((5-ethylpyridin-3-yl)methylamino)-3-hydroxy-1-phenylbutan-2-yl)-5-(N-methylmethylsulfonamido)-N3-(1-phenylethyl)isophthalamide]
> 6.52	> 6.52	> 6.00	COc1cccc(CNCC(O)C(Cc2ccccc2)NC(=O)c2cc(C(=O)N(C)Cc3nc(C)cs3)cc(N(C)S(C)(=O)=O)c2)c1 (stereo not drawn) [N1-(3-hydroxy-4-(3-methoxybenzylamino)-1-phenylbutan-2-yl)-N3-methyl-5-(N-methylmethylsulfonamido)-N3-((4-methylthiazol-2-yl)methyl)isophthalamide]
< 6.30	> 6.52	> 6.00	CC(NC(=O)c1cc(C(=O)NC(Cc2ccccc2)C(O)CNCc2cccc(CN(C)C)c2)cc(N(C)S(C)(=O)=O)c1)c1ccccc1 (stereo not drawn) [N1-(4-(3-((dimethylamino)methyl)benzylamino)-3-hydroxy-1-phenylbutan-2-yl)-5-(N-methylmethylsulfonamido)-N3-(1-phenylethyl)isophthalamide]
